Measurements taken from patent US9809623B2, “α4β7 peptide monomer and dimer antagonists” (Protagonist Therapeutics, Inc., priority 2014, dated 2017).
Numbered stars: 1 amine (or outer) side, 2 acyl side, 3 side chain; on linkers, the order of the positions; unused ones are H or OH. Bridge positions count the residues as written; N and C are the ends. Square brackets hold non-standard residues; d marks the D form. Peptide text beside a SMILES is read from it. I, II: the chains in the order shown. Phe(4-tBu) = CC(C)(C)c1ccc(C[C@H](N)C(=O)O)cc1; Diglycolyl = O=C(COCC(=O)[*:2])[*:1]; NMeR = CN[C@@H](CCCNC(=N)N)C(=O)O; β3hE = N[C@@H](CCC(=O)O)CC(=O)O; NMeK = CN[C@@H](CCCCN)C(=O)O; Pen = CC(C)(S)[C@H](N)C(=O)O; dNMeK = CN[C@H](CCCCN)C(=O)O

Experiments:
[1] = Dithiothreitol (DTT) Redox Stability Assay; format: physicochemical; settings: Table 4-C, t1/2, 0.5 mM DTT
Method: For each peptide tested, the DTT stability assay was conducted by adding 5 μl of a 10 mM peptide stock solution in DMSO to 1 ml of 100 mM Tris-Cl, pH 7.5 (final peptide concentration is 50 μM). At time 0 min, 5 ul of a freshly thawed 100 mM DTT solution was added to the incubation tube containing the peptide, such that the final DTT concentration was 0.5 mM. The reactions were incubated at room temperature. At different time points up to 120 minutes (20 min, 40 min, 80 min, 120 min), 50 ul aliquots were removed, and the reaction was quenched by adding 10 μl of 5M acetic acid. To measure disappearance of the parent peptide, the quenched samples (30 μl) were analyzed by reverse phase HPLC and UV absorbance at 220 nm. The fraction oxidized remaining was graphed versus time, and half-lives were calculated by fitting to a first-order exponential decay equation using Excel.

rh integrin α4β7 = target: T1, rh integrin α4β7 (Homo sapiens, UniProt P13612+P26010); experiment: α4β7-MAdCAM Competition ELISA; format: binding; settings: Table 4-B; read-out: ELISA α4β7 IC50
T1 construct: purchased R&D Systems 5397-A30
T1 sequence (P13612 34-977 limits assumed): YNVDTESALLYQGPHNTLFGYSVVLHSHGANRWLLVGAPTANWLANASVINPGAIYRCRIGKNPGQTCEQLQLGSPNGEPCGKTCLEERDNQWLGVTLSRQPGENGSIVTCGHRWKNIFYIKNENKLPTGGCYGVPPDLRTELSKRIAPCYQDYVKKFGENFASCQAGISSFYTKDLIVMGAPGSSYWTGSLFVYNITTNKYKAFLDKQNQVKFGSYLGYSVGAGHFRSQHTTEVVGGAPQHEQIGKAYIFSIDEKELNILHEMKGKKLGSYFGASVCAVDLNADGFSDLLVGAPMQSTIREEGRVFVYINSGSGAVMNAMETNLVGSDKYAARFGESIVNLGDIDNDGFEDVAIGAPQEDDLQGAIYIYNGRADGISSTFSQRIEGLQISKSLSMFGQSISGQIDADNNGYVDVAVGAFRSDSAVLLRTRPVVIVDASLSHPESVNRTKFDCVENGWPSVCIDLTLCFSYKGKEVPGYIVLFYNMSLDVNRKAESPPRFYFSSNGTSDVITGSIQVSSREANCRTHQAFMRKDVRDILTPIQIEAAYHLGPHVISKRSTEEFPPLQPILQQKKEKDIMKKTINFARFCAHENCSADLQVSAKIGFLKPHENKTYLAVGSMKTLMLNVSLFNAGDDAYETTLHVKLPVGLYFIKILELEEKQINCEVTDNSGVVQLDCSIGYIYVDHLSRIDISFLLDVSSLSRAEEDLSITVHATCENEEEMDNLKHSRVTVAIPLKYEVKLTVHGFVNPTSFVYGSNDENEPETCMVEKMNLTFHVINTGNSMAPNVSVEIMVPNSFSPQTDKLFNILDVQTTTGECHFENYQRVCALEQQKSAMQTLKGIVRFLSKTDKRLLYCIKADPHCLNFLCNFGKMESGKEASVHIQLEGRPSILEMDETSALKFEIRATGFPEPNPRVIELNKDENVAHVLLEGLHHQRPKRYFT
T1 sequence (P26010 20-723 limits assumed): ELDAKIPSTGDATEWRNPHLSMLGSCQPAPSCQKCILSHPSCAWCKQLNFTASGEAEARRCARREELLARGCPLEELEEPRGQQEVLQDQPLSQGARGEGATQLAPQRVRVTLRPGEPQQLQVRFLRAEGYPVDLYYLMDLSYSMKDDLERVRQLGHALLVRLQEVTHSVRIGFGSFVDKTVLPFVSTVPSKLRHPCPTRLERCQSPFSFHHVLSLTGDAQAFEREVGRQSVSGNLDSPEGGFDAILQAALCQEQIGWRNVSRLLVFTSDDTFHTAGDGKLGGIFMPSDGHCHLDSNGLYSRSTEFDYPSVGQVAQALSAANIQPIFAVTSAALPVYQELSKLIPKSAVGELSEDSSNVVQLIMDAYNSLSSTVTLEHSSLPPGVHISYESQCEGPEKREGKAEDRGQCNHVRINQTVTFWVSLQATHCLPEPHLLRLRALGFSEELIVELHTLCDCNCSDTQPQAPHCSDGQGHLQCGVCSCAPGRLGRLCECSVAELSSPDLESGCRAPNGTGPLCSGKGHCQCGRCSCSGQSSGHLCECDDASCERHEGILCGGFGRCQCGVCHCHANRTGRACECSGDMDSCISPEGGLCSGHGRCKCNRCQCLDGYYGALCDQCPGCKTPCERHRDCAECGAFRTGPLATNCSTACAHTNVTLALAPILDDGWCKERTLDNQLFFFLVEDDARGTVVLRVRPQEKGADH
In short: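 Competition read-out was A450 after anti-human IgG1-HRP and TMB detection of bound recombinant human MAdCAM-1 (10 nM final). Peptides were serially diluted 3-fold from a final 10 μM and equilibrated 1 h at room temperature on nickel-captured α4β7 (800 ng/well). The buffer was Tris pH 7.6 with 1 mM Mn2+ or Mg2+.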

α4β1 = α4β1 (Homo sapiens, UniProt P05556+P13612); experiment: α4β1-VCAM Cell Adhesion Assay (Jurkat E6.1 human cells); format: cell-based; set-up: host or cells: Jurkat E6.1 human T cells; settings: Table 4-B; read-out: Cell Adhesion α4β1 IC50
α4β1, sequence (P13612 34-1032): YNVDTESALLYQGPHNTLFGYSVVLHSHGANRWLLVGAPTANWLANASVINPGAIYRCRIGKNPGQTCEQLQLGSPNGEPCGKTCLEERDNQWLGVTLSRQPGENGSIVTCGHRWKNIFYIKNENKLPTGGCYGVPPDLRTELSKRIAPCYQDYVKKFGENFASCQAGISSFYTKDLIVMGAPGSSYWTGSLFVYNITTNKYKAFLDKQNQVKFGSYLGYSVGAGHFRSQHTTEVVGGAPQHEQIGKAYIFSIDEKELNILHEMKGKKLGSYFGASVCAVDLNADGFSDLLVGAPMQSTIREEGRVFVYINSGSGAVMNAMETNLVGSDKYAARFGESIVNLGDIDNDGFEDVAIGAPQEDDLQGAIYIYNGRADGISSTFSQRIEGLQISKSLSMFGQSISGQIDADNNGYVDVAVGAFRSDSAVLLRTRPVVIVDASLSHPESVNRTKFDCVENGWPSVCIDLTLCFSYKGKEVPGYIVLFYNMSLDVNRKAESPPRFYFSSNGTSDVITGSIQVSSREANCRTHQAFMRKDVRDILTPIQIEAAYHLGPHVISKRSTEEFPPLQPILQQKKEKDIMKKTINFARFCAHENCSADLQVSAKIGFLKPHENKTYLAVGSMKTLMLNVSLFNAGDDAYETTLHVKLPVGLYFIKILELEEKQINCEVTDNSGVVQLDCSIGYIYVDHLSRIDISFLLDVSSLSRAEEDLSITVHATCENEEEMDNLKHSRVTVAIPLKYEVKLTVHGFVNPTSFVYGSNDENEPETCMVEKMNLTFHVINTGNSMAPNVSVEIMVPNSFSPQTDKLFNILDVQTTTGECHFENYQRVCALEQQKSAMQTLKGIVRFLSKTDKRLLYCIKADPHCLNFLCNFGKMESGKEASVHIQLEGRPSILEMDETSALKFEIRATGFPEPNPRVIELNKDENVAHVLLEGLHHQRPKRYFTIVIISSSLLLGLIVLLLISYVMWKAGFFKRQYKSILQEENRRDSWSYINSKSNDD
α4β1, sequence (P05556 21-798): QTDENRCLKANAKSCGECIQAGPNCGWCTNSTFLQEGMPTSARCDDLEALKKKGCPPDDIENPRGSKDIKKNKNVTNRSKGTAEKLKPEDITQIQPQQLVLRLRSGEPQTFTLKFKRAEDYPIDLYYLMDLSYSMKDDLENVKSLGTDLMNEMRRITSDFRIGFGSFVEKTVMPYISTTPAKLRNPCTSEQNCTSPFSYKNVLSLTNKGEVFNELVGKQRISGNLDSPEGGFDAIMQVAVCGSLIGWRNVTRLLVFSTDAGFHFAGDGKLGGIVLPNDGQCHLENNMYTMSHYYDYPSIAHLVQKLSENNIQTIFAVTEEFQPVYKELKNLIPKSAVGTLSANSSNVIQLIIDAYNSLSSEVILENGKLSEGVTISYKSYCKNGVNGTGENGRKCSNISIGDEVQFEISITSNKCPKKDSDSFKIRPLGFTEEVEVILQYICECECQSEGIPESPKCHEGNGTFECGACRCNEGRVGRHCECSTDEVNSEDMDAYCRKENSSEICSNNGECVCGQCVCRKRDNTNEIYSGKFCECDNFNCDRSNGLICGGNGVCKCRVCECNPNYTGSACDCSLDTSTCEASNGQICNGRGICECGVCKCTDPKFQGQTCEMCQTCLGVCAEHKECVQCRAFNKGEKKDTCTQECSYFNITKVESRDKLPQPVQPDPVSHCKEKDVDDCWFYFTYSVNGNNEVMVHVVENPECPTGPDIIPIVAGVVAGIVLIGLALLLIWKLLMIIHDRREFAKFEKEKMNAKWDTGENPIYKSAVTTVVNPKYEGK
Method: Jurkat E6.1 human cells (Sigma #88042803) were cultured in RPMI 1640 HEPES medium (Invitrogen #22400-089) supplemented with 10% serum (Fetal Bovine Serum, Invitrogen #16140-071), 1 mM sodium pyruvate (Invitrogen #11360-070), 2 mM L-glutamine (Invitrogen #25030-081) and Penicillin-Streptomycin (Invitrogen #15140-122) at 100 units of penicillin and 100 μg of streptomycin per ml. The cells were washed two times in DMEM medium (ATCC #30-2002) supplemented with 0.1% BSA, 10 mM HEPES pH 7 and 1 mM MnCl2. The cells were re-suspended in supplemented DMEM medium at a density of 4×10^6 cells/ml.
A Nunc MaxiSorp plate was coated with rh VCAM-1/CD106 Fc chimera (R&D #862-VC) at 400 ng per well in 50 ul per well in 1×PBS and incubated at 4° C. overnight. The solution was then removed by shaking, blocked with 250 ul per well PBS containing 1% BSA, and incubated at 37° C. for 1 hr. The solution was removed by shaking. Peptides were diluted by serial dilution in a final volume of 50 ul per well (2× concentration). To each well, 50 ul of cells (200,000 cells) were added and the plate was incubated at 37° C., 5% CO2 for 30-45 min to allow cell adhesion. The wells were washed manually three times (100 ul per wash) with supplemented DMEM. After the final wash, 100 ul/well of supplemented DMEM and 10 ul/well of MTT reagent (ATTC cat#30-1010K) were added. The plate was incubated at 37° C., 5% CO2 for 2-3 hrs until a purple precipitate was visible. 100 ul of Detergent Reagent (ATTC cat#30-1010K) was added to each well. The plate was covered from the light, wrapped in Parafilm to prevent evaporation, and left overnight at room temperature in the dark. The plate was shaken for 5 min and the absorbance at 570 nm was measured. To calculate the dose response, the absorbance value of control wells not containing cells was subtracted from each test well.

Row | SMILES | DTT Min [1] [min] | IC50 (rh integrin α4β7) [nM] | IC50 (α4β1) [nM]
1 | CC(=O)N[C@H]1CSSC[C@@H](C(=O)NCC(=O)N[C@@H](CCC(=O)O)C(N)=O)NC(=O)[C@H](CC(C)C)NC(=O)[C@H]([C@@H](C)O)NC(=O)[C@H](CC(=O)O)NC(=O)[C@H](CO)NC(=O)[C@H](CCCNC(=N)N)N(C)C1=O [compound 198, Ac-C-N-Me-R-S-D-T-L-C-G-E-NH2] (Ac-C[NMeR]SDTLCGE-NH2; disulfide 1-7) | 4.5 | 20 | > 100000
2 | CC(=O)N[C@@H]1C(=O)N(C)[C@@H](CCCNC(=N)N)C(=O)N[C@@H](CO)C(=O)N[C@@H](CC(=O)O)C(=O)N[C@@H]([C@@H](C)O)C(=O)N[C@@H](CC(C)C)C(=O)N[C@H](C(=O)N[C@@H](Cc2c[nH]c3ccccc23)C(=O)N[C@@H](CCC(=O)O)C(=O)N(C)[C@@H](CCCCNC(=O)COCC(=O)NCCCC[C@@H](C(N)=O)N(C)C(=O)[C@H](CCC(=O)O)NC(=O)[C@H](Cc2c[nH]c3ccccc23)NC(=O)[C@H]2NC(=O)[C@H](CC(C)C)NC(=O)[C@H]([C@@H](C)O)NC(=O)[C@H](CC(=O)O)NC(=O)[C@H](CO)NC(=O)[C@H](CCCNC(=N)N)N(C)C(=O)[C@@H](NC(C)=O)C(C)(C)SSC2(C)C)C(N)=O)C(C)(C)SSC1(C)C [compound 215, [Ac-Pen-(N-Me-Arg)-Ser-Asp-Thr-Leu-Pen-Trp-Glu-(N-Me-Lys)-NH2]2-DIG] (I: Ac-[Pen][NMeR]SDTL[Pen]WE[NMeK]-NH2 / II: Ac-[Pen][NMeR]SDTL[Pen]WE[NMeK]-NH2; disulfide I:1-I:7, II:1-II:7 (inferred); linker I:10-II:10 via Diglycolyl (inferred)) | >120 | 2.2 | –
3 | CC(=O)N[C@@H]1C(=O)N[C@@H](CCCNC(=N)N)C(=O)N[C@@H](CO)C(=O)N[C@@H](CC(=O)O)C(=O)N[C@@H]([C@@H](C)O)C(=O)N[C@@H](CC(C)C)C(=O)N[C@H](C(=O)N[C@H](CCCCNC(=O)COCC(=O)NCCCC[C@@H](NC(=O)[C@@H]2CSSC(C)(C)[C@H](NC(C)=O)C(=O)N[C@@H](CCCNC(=N)N)C(=O)N[C@@H](CO)C(=O)N[C@@H](CC(=O)O)C(=O)N[C@@H]([C@@H](C)O)C(=O)N[C@@H](CC(C)C)C(=O)N2)C(N)=O)C(N)=O)CSSC1(C)C [compound 207, (Ac-Pen-R-S-D-T-L-C-k-NH2)2-DIG] (I: Ac-[Pen]RSDTLC[dK]-NH2 / II: Ac-[Pen]RSDTLC[dK]-NH2; disulfide I:1-I:7, II:1-II:7 (inferred); linker I:8-II:8 via Diglycolyl (inferred)) | 35 | 26 | –
4 | CC(=O)N[C@@H]1C(=O)N(C)[C@@H](CCCNC(=N)N)C(=O)N[C@@H](CO)C(=O)N[C@@H](CC(=O)O)C(=O)N[C@@H]([C@@H](C)O)C(=O)N[C@@H](CC(C)C)C(=O)N[C@H](C(=O)N[C@@H](Cc2ccc(C(C)(C)C)cc2)C(=O)N[C@@H](CCC(=O)O)CC(=O)N[C@H](CCCCNC(=O)COCC(=O)NCCCC[C@@H](NC(=O)C[C@H](CCC(=O)O)NC(=O)[C@H](Cc2ccc(C(C)(C)C)cc2)NC(=O)[C@H]2NC(=O)[C@H](CC(C)C)NC(=O)[C@H]([C@@H](C)O)NC(=O)[C@H](CC(=O)O)NC(=O)[C@H](CO)NC(=O)[C@H](CCCNC(=N)N)N(C)C(=O)[C@@H](NC(C)=O)C(C)(C)SSC2(C)C)C(N)=O)C(N)=O)C(C)(C)SSC1(C)C [compound 218, [Ac-Pen-(N-Me-Arg)-Ser-Asp-Thr-Leu-Pen-Phe(4-tBu)-(β-homoGlu)-(D-Lys)-NH2]2-DIG] (I: Ac-[Pen][NMeR]SDTL[Pen][Phe(4-tBu)][β3hE][dK]-NH2 / II: Ac-[Pen][NMeR]SDTL[Pen][Phe(4-tBu)][β3hE][dK]-NH2; disulfide I:1-I:7, II:1-II:7; linker I:10-II:10 via Diglycolyl) | >120 | 2.8 | > 100000
5 | CC(=O)N[C@@H]1C(=O)N(C)[C@@H](CCCNC(=N)N)C(=O)N[C@@H](CO)C(=O)N[C@@H](CC(=O)O)C(=O)N[C@@H]([C@@H](C)O)C(=O)N[C@@H](CC(C)C)C(=O)N[C@H](C(=O)N[C@@H](Cc2c[nH]c3ccccc23)C(=O)N[C@@H](CCC(=O)O)C(=O)N(C)[C@H](CCCCNC(=O)COCC(=O)NCCCC[C@H](C(N)=O)N(C)C(=O)[C@H](CCC(=O)O)NC(=O)[C@H](Cc2c[nH]c3ccccc23)NC(=O)[C@H]2NC(=O)[C@H](CC(C)C)NC(=O)[C@H]([C@@H](C)O)NC(=O)[C@H](CC(=O)O)NC(=O)[C@H](CO)NC(=O)[C@H](CCCNC(=N)N)N(C)C(=O)[C@@H](NC(C)=O)C(C)(C)SSC2(C)C)C(N)=O)C(C)(C)SSC1(C)C [compound 214, [Ac-Pen-(N-Me-Arg)-Ser-Asp-Thr-Leu-Pen-Trp-Glu-(N-Me-D-Lys)-NH2]2-DIG] (I: Ac-[Pen][NMeR]SDTL[Pen]WE[dNMeK]-NH2 / II: Ac-[Pen][NMeR]SDTL[Pen]WE[dNMeK]-NH2; disulfide I:1-I:7, II:1-II:7 (inferred); linker I:10-II:10 via Diglycolyl (inferred)) | >120 | 4.1 | –
6 | CC(=O)N[C@H]1CSSC(C)(C)[C@@H](C(=O)N[C@H](CCCCN)C(N)=O)NC(=O)[C@H](CC(C)C)NC(=O)[C@H]([C@@H](C)O)NC(=O)[C@H](CC(=O)O)NC(=O)[C@H](CO)NC(=O)[C@H](CCCNC(=N)N)N(C)C1=O [compound 202, Ac-C-N-Me-R-S-D-T-L-Pen-k-NH2] (Ac-C[NMeR]SDTL[Pen][dK]-NH2; disulfide 1-7) | 42 | 87 | > 100000
7 | CC(=O)N[C@H]1CSSC[C@@H](C(N)=O)NC(=O)[C@H](CC(C)C)NC(=O)[C@H]([C@@H](C)O)NC(=O)[C@H](CC(=O)O)NC(=O)[C@H](CO)NC(=O)[C@H](CCCNC(=N)N)NC1=O [compound 195, Ac-C-R-S-D-T-L-C-NH2] (Ac-CRSDTLC-NH2; disulfide 1-7) | 4.7 | 97 | –
8 | CC(=O)N[C@@H]1C(=O)N(C)[C@@H](CCCNC(=N)N)C(=O)N[C@@H](CO)C(=O)N[C@@H](CC(=O)O)C(=O)N[C@@H]([C@@H](C)O)C(=O)N[C@@H](CC(C)C)C(=O)N[C@H](C(=O)N[C@@H](Cc2c[nH]c3ccccc23)C(=O)N[C@H](CCCCN)C(N)=O)C(C)(C)SSC1(C)C [compound 208, Ac-Pen-N-Me-R-S-D-T-L-Pen-W-k-NH2] (Ac-[Pen][NMeR]SDTL[Pen]W[dK]-NH2; disulfide 1-7) | >120 | 30.5 | –
9 | CC(=O)N[C@H]1CSSC[C@@H](C(=O)NCC(=O)N[C@@H](CCC(=O)O)C(N)=O)NC(=O)[C@H](CC(C)C)NC(=O)[C@H]([C@@H](C)O)NC(=O)[C@H](CC(=O)O)NC(=O)[C@H](CO)NC(=O)[C@H](CCCNC(=N)N)NC1=O [compound 194, Ac-C-R-S-D-T-L-C-G-E-NH2] (Ac-CRSDTLCGE-NH2; disulfide 1-7) | 5.5 | 97 | –
10 | CC(=O)N[C@H]1CSSC(C)(C)[C@@H](C(=O)N[C@@H](CCC(=O)O)C(=O)N[C@H](CCCCNC(=O)COCC(=O)NCCCC[C@@H](NC(=O)[C@H](CCC(=O)O)NC(=O)[C@H]2NC(=O)[C@H](CC(C)C)NC(=O)[C@H]([C@@H](C)O)NC(=O)[C@H](CC(=O)O)NC(=O)[C@H](CO)NC(=O)[C@H](CCCNC(=N)N)N(C)C(=O)[C@@H](NC(C)=O)CSSC2(C)C)C(N)=O)C(N)=O)NC(=O)[C@H](CC(C)C)NC(=O)[C@H]([C@@H](C)O)NC(=O)[C@H](CC(=O)O)NC(=O)[C@H](CO)NC(=O)[C@H](CCCNC(=N)N)N(C)C1=O [compound 205, (Ac-C-N-Me-R-S-D-T-L-Pen-E-k-NH2)2-DIG] (I: Ac-C[NMeR]SDTL[Pen]E[dK]-NH2 / II: Ac-C[NMeR]SDTL[Pen]E[dK]-NH2; disulfide I:1-I:7, II:1-II:7 (inferred); linker I:9-II:9 via Diglycolyl (inferred)) | 42 | 2.4 | –
